According to US4683227A, “Antibiotic derivatives of 7β-[2-(thiazol-4-yl)acetamide]-3-chloro-3-cephem-4-carboxylic acids and compositions and method of use thereof” (Eli Lilly and Company, priority 1985, dated 1987):
≈ marks a conversion by molar mass, not a printed value. Like-named read-outs stand apart in the source and are kept apart here.

Experiments:
[1] = tested on: Streptococcus pyogenes C203; experiment: Minimum inhibitory concentration, standard agar dilution method; assay type: cell-based
From the text: (§1) The method of this invention is useful in treating infections caused by a variety of microorganisms pathogenic to man and animals. […] The concentrations were obtained by the standard agar dilution method.

[2] = tested on: Streptococcus pneumoniae PARK I; experiment: as above; assay type: cell-based
From the text: as §1

[3] = tested on: Staphylococcus aureus X400; experiment: as above; assay type: cell-based
From the text: as §1

[4] = tested on: Klebsiella pneumoniae KAE; experiment: as above; assay type: cell-based; details: for MIC: read-out: Minimum Inhibitory Concentration
From the text: as §1

Escherichia coli EC14 = experiment: as above; assay type: cell-based
From the text: as §1

[5] = tested on: Staphylococcus aureus S13E; experiment: as above; assay type: cell-based; details: for Minimum Inhibitory Concentration: Staphylococcus aureus S13E, agar dilution; for MIC: Staphylococcus aureus, S13E, read-out: Minimum Inhibitory Concentration
From the text: as §1

[6] = tested on: Streptococcus sp. group D 2041; experiment: as above; assay type: cell-based; details: for MIC: read-out: Minimum Inhibitory Concentration
From the text: as §1

[7] = tested on: Klebsiella pneumoniae X68; experiment: as above; assay type: cell-based
From the text: as §1

[8] = tested on: Staphylococcus aureus V41; experiment: as above; assay type: cell-based
From the text: as §1

[9] = tested on: Haemophilus influenzae 76; experiment: as above; assay type: cell-based
From the text: as §1

[10] = tested on: Klebsiella pneumoniae X26; experiment: as above; assay type: cell-based
From the text: as §1

[11] = tested on: Staphylococcus epidermidis 222; experiment: as above; assay type: cell-based
From the text: as §1

[12] = tested on: Streptococcus sp. group D X66; experiment: as above; assay type: cell-based; details: for MIC: read-out: Minimum Inhibitory Concentration
From the text: as §1

Escherichia coli TEM = experiment: as above; assay type: cell-based
From the text: as §1

[13] = tested on: Haemophilus influenzae C.L.; experiment: as above; assay type: cell-based
From the text: as §1

[14] = tested on: Staphylococcus epidermidis Epil; experiment: as above; assay type: cell-based
From the text: as §1

Escherichia coli N10 = experiment: as above; assay type: cell-based
From the text: as §1

[15] = tested on: Staphylococcus aureus X1.1; experiment: as above; assay type: cell-based
From the text: as §1

[16] = Oral bioavailability in dogs; assay type: in vivo; details: female mongrel dogs
[17] = Peroral bioavailability in mice (oral vs subcutaneous dosage); assay type: in vivo, mice (Cox Male Standard Mice, Lai:COX (Standard) BR); details: 20 mg/kg; for Oral Bioavailability % BA (AUC): area under plasma curves after oral vs subcutaneous dosage; for Oral Bioavailability % BA (URINE): urinary excretion after oral vs subcutaneous dosage
From the text: Cox Male Standard Mice, Lai:COX (Standard) BR were housed overnight in a wire-bottom cage with free access to water and liquid diet. The result was a gastro-intestinal tract free of solids, yet without the nutritional shock and coprophagy that often accompanies overnight starvation of rodents. After dosing, the mice were housed individually in ventilated wide-mouth jars containing a layer of buffer beneath an elevated wire screen floor. At intervals after dosing, mice were removed from the jars and heparinized blood, stomach, and small intestine were removed from the animals. The urinary bladder was removed and combined with the urine collected in the buffer in the bottom of the jars. Urine, washings from the stomach and small intestine, and plasma prepared from blood samples were assayed for antibiotic activity. The test procedure used is a modification of the test procedure described by W. E. Wright, et al., J. Antibiotics, 32:1155 (1979).
Dose solutions were prepared in saline at 2 mg/ml for subcutaneous or oral administration. In all cases the compounds were administered to the mice at 20 mg/kg on an equal weight basis.
The biological activity of the samples was determined by a conventional agar well procedure using Bacillus subtilis ATCC 6633 as the test organism.
Peroral bioavailability (BA) of the test compounds in mice can be determined either by comparison of the area under the plasma curves (AUC) after oral or subcutaneous dosage, or by comparison of the urinary excretion of the dose after oral and subcutaneous dosage. Calculations of BA by either method are made with the following formulae: [formula]

[18] = in vivo, po; cited from earlier work
[19] = Staphylococcus aureus X400, agar dilution
[20] = Klebsiella pneumoniae KAE, agar dilution
[21] = Streptococcus sp. group D 2041, agar dilution
[22] = Staphylococcus aureus V41, agar dilution
[23] = Streptococcus sp. group D X66, agar dilution
[24] = Staphylococcus aureus X400, agar dilution, read-out: Minimum Inhibitory Concentration
[25] = Staphylococcus aureus V41, agar dilution, read-out: Minimum Inhibitory Concentration

Compound	Minimum Inhibitory Concentration [1] [µg/mL]	Minimum Inhibitory Concentration [2] [µg/mL]	Minimum Inhibitory Concentration [3, 19] [µg/mL]	Minimum Inhibitory Concentration [4, 20] [µg/mL]	Minimum Inhibitory Concentration (Escherichia coli EC14) [µg/mL]	Minimum Inhibitory Concentration [5] [µg/mL]	Minimum Inhibitory Concentration [6, 21] [µg/mL]	MIC [1] [µg/mL]	MIC [2] [µg/mL]	MIC (Escherichia coli EC14) [µg/mL]	MIC [5] [µg/mL]	MIC [7] [µg/mL]	MIC [9] [µg/mL]	MIC [10] [µg/mL]	MIC [11] [µg/mL]	MIC (Escherichia coli TEM) [µg/mL]	MIC [13] [µg/mL]	MIC [14] [µg/mL]	MIC (Escherichia coli N10) [µg/mL]	MIC [15] [µg/mL]	other results
Nc1nc(CC(=O)N[C@@H]2C(=O)N3C(C(=O)O)=C(Cl)CS[C@H]23)ns1 [Compound 1]	1	2	> 128	> 128	8	64	128	–	–	–	–	–	–	–	–	–	–	–	–	–	Minimum Inhibitory Concentration [7]: 8 µg/mL; Minimum Inhibitory Concentration [8, 22]: 128 µg/mL; Minimum Inhibitory Concentration [9]: 4 µg/mL; Minimum Inhibitory Concentration [10]: 4 µg/mL; Minimum Inhibitory Concentration [11]: 4 µg/mL; Minimum Inhibitory Concentration [12, 23]: > 128 µg/mL; Minimum Inhibitory Concentration (Escherichia coli TEM): 16 µg/mL; Minimum Inhibitory Concentration [13]: 4 µg/mL; Minimum Inhibitory Concentration [14]: 16 µg/mL; Minimum Inhibitory Concentration (Escherichia coli N10): 32 µg/mL; Minimum Inhibitory Concentration [15]: 4 µg/mL
Nc1nc(CC(=O)N[C@@H]2C(=O)N3C(C(=O)O)=C(Cl)CS[C@H]23)cs1 [Compound 2, 7β-[2-(2-Aminothiazol-4-yl)acetamido]-3-chloro-3-cephem-4-carboxylic acid]	–	–	–	–	–	–	–	0.06 (≈ 0.16 µM)	0.5 (≈ 1.33 µM)	1 (≈ 2.67 µM)	32 (≈ 85.4 µM)	0.5 (≈ 1.33 µM)	0.5 (≈ 1.33 µM)	0.25 (≈ 0.667 µM)	1 (≈ 2.67 µM)	2 (≈ 5.34 µM)	0.5 (≈ 1.33 µM)	4 (≈ 10.7 µM)	4 (≈ 10.7 µM)	1 (≈ 2.67 µM)	bioavailability ([16]; oral, calculated with the above-described formulae): 28%; MIC [3, 24]: > 128 µg/mL; MIC [4, 20]: 16 µg/mL (≈ 42.7 µM); MIC [6, 21]: 32 µg/mL (≈ 85.4 µM); MIC [8, 25]: 32 µg/mL (≈ 85.4 µM); MIC [12, 23]: > 128 µg/mL; Oral Bioavailability % BA (AUC) [17]: 62%; Oral Bioavailability % BA (URINE) [17]: 64%
O=C(Cc1csc(Cl)n1)N[C@@H]1C(=O)N2C(C(=O)O)=C(Cl)CS[C@H]12 [Compound 3, 7β-[2-(2-Chlorothiazol-4-yl)acetamido]-3-chloro-3-cephem-4-carboxylic acid]	–	–	–	–	–	–	–	0.25 (≈ 0.634 µM)	0.5 (≈ 1.27 µM)	16 (≈ 40.6 µM)	64 (≈ 162 µM)	8 (≈ 20.3 µM)	2 (≈ 5.07 µM)	4 (≈ 10.1 µM)	2 (≈ 5.07 µM)	16 (≈ 40.6 µM)	2 (≈ 5.07 µM)	8 (≈ 20.3 µM)	32 (≈ 81.2 µM)	1 (≈ 2.54 µM)	MIC [3, 24]: > 128 µg/mL; MIC [4, 20]: 128 µg/mL (≈ 325 µM); MIC [6, 21]: 64 µg/mL (≈ 162 µM); MIC [8, 25]: 64 µg/mL (≈ 162 µM); MIC [12, 23]: 128 µg/mL (≈ 325 µM); Oral Bioavailability % BA (AUC) [17]: 66%; Oral Bioavailability % BA (URINE) [17]: 56%
Cc1nc(CC(=O)N[C@@H]2C(=O)N3C(C(=O)O)=C(Cl)CS[C@H]23)cs1 [Compound 4, 7β-[2-(2-Methylthiazol-4-yl)acetamido]-3-chloro-3-cephem-4-carboxylic acid]	–	–	–	–	–	–	–	0.25 (≈ 0.669 µM)	1 (≈ 2.67 µM)	16 (≈ 42.8 µM)	128 (≈ 342 µM)	8 (≈ 21.4 µM)	1 (≈ 2.67 µM)	2 (≈ 5.35 µM)	2 (≈ 5.35 µM)	16 (≈ 42.8 µM)	2 (≈ 5.35 µM)	8 (≈ 21.4 µM)	32 (≈ 85.6 µM)	1 (≈ 2.67 µM)	MIC ([3]; Staphylococcus aureus, X400, read-out: Minimum Inhibitory Concentration): > 128 µg/mL; MIC ([4]; Klebsiella pneumoniae): > 128 µg/mL; MIC ([6]; Streptococcus): 128 µg/mL (≈ 342 µM); MIC ([8]; Staphylococcus aureus, V41, read-out: Minimum Inhibitory Concentration): 128 µg/mL (≈ 342 µM); MIC ([12]; Streptococcus): > 128 µg/mL; Oral Bioavailability % BA (AUC) [17]: 57%; Oral Bioavailability % BA (URINE) [17]: 66%
O=C(Cc1csc(-c2ccccc2)n1)N[C@@H]1C(=O)N2C(C(=O)O)=C(Cl)CS[C@H]12 [Compound 5, 7β-[2-(2-Phenylthiazol-4-yl)acetamido]-3-chloro-3-cephem-4-carboxylic acid]	–	–	–	–	–	–	–	0.06 (≈ 0.138 µM)	0.125 (≈ 0.287 µM)	> 128	16 (≈ 36.7 µM)	> 128	0.5 (≈ 1.15 µM)	8 (≈ 18.4 µM)	0.5 (≈ 1.15 µM)	> 128	4 (≈ 9.18 µM)	4 (≈ 9.18 µM)	> 128	0.25 (≈ 0.574 µM)	MIC [3, 24]: 64 µg/mL (≈ 147 µM); MIC [4, 20]: > 128 µg/mL; MIC [6, 21]: 16 µg/mL (≈ 36.7 µM); MIC [8, 25]: 32 µg/mL (≈ 73.4 µM); MIC [12, 23]: 64 µg/mL (≈ 147 µM)
O=C(Cn1cnnn1)N[C@@H]1C(=O)N2C(C(=O)O)=C(Cl)CS[C@H]12 [Compound 6]	0.5	0.5	> 128	> 128	16	32	64	–	–	–	–	–	–	–	–	–	–	–	–	–	Minimum Inhibitory Concentration [7]: 32 µg/mL; Minimum Inhibitory Concentration [8, 22]: 32 µg/mL; Minimum Inhibitory Concentration [9]: 8 µg/mL; Minimum Inhibitory Concentration [10]: 32 µg/mL; Minimum Inhibitory Concentration [11]: 4 µg/mL; Minimum Inhibitory Concentration [12, 23]: 64 µg/mL; Minimum Inhibitory Concentration (Escherichia coli TEM): 32 µg/mL; Minimum Inhibitory Concentration [13]: 16 µg/mL; Minimum Inhibitory Concentration [14]: 16 µg/mL; Minimum Inhibitory Concentration (Escherichia coli N10): 32 µg/mL; Minimum Inhibitory Concentration [15]: 2 µg/mL
N#Cc1ncn(CC(=O)N[C@@H]2C(=O)N3C(C(=O)O)=C(Cl)CS[C@H]23)n1 [Compound 7]	0.25	0.5	> 128	> 128	32	128	64	–	–	–	–	–	–	–	–	–	–	–	–	–	Minimum Inhibitory Concentration [7]: 64 µg/mL; Minimum Inhibitory Concentration [8, 22]: 128 µg/mL; Minimum Inhibitory Concentration [9]: 2 µg/mL; Minimum Inhibitory Concentration [10]: 32 µg/mL; Minimum Inhibitory Concentration [11]: 4 µg/mL; Minimum Inhibitory Concentration [12, 23]: 128 µg/mL; Minimum Inhibitory Concentration (Escherichia coli TEM): 64 µg/mL; Minimum Inhibitory Concentration [13]: 2 µg/mL; Minimum Inhibitory Concentration [14]: 8 µg/mL; Minimum Inhibitory Concentration (Escherichia coli N10): 64 µg/mL; Minimum Inhibitory Concentration [15]: 2 µg/mL
CC1(C)S[C@@H]2[C@H](NC(=O)COc3ccccc3)C(=O)N2[C@H]1C(=O)O [Penicillin V]	–	–	–	–	–	–	–	–	–	–	–	–	–	–	–	–	–	–	–	–	bioavailability ([16]; dog, urine recovery with time following intravenous and oral administration, read-out: bioavailability (percent of dose recovered in the urine)): 21%; oral bioavailability (area under the curves) ([16]; serum antibacterial levels with time following intravenous and oral administration): 11%
N[C@@H](C(=O)N[C@@H]1C(=O)N2C(C(=O)O)=C(Cl)CS[C@H]12)c1ccccc1 [cefaclor]	–	–	–	–	–	–	–	–	–	–	–	–	–	–	–	–	–	–	–	–	absorption from the gastrointestinal tract [18]: high absorption
CC1=C(C(=O)O)N2C(=O)[C@@H](NC(=O)[C@H](N)C3=CCC=CC3)[C@H]2SC1 [cephradine]	–	–	–	–	–	–	–	–	–	–	–	–	–	–	–	–	–	–	–	–	absorption from the gastrointestinal tract [18]: high absorption
